# Results taken from US8815908B2, “Compounds and methods for inhibiting phosphate transport” (Ardelyx, Inc., priority 2010, dated 2014).
# How the values were obtained:
# human NaP2b (SLC34A2) = molecular target: T1, human NaP2b (SLC34A2) (Homo sapiens, UniProt O95436); experiment: Inhibition of NaP2b-mediated Pi uptake into transfected HEK293 cells (human); type: cell-based; conditions: 33P Pi uptake, 100 uM KH2PO4, human protein with Thr inserted after residue 37 and N39D, read-out: pIC50 range for human (converted)
# T1 construct: host or cells: HEK293
# T1 sequence (O95436 1-690): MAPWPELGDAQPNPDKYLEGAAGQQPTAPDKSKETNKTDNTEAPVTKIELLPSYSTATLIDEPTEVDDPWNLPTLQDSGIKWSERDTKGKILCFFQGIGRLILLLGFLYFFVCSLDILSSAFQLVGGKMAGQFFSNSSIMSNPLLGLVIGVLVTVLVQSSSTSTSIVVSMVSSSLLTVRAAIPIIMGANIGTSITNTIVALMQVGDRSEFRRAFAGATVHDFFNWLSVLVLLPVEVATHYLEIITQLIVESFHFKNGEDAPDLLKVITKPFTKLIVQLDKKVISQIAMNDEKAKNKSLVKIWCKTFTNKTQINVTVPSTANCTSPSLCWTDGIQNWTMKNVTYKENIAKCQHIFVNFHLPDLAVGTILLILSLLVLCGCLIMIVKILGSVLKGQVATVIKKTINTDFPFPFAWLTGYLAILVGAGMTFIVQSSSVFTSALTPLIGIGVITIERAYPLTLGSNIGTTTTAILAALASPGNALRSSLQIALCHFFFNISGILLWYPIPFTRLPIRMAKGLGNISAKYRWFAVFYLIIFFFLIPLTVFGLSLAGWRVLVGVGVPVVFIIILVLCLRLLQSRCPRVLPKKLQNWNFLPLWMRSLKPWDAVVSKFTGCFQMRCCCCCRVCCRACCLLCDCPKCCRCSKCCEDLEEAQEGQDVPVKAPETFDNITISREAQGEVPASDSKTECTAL
# Procedure: (§1) HEK293 cells were obtained from the American Type Culture collection and propagated per their instructions. Expression clones for rat and human NaP2b (SLC34A2) were obtained from Open Biosystems (Catalog numbers MRN1768-9510282, and MHS1010-99823026, respectively). The sequence of the human protein was mutated to insert a threonine after residue 37, and to introduce a N39D mutation.
# (§2) The rate of phosphate (Pi) uptake into HEK293 cells was measured using a modification of the method described by Mohrmann et al. (Mohrmann, I., Mohrmann, M., Biber, J., and Murer, H. (1986) Am. J. Phys. 250(3 Pt 1):G323-30.) Transfected HEK293 cells were treated with a pharmacological agent to minimize endogenous PiT-mediated phosphate transport activity, such that the only remaining sodium-dependent phosphate transport activity is that which was bestowed by introduction of the NaP2b genes.
# Cells were seeded into 96-well plates at 25,000 cells/well and cultured overnight. […]
# (§3) After incubation for 3-30 minutes at room temperature, assay mixtures were removed, and the cells were washed twice with ice cold stop solution (137 mM sodium chloride, 14 mM Tris, pH 7.4). Cells were lysed by addition of 20 μL 0.1% Tween 80 followed by 100 μL scintillation fluid, and counted using a TopCount (Perkin Elmer).
# (§4) pIC50 (the negative log of the IC50) values of the test compounds were calculated using GraphPad Prism.
# [1] = Determination of compound Cmax and AUC after oral gavage; type: in vivo, Sprague-Dawley rats; conditions: Sprague-Dawley, rat plasma; for AUC: blood at 0.5-4 h
# Procedure: Blood samples were processed to plasma using K2EDTA as an anticoaglulant. Plasma samples were treated with acetonitrile containing an internal standard, precipitated proteins removed by centrifugation. Supernatants were analyzed by LC-MS/MS and compound concentrations were determined by interpolated from a standard curve prepared in plasma. All compounds were orally dosed at the dosage shown, and pharmacokinetic parameters determined.
# [2] = Fecal recovery of orally administered compounds; type: in vivo, Sprague-Dawley rats; conditions: rat, oral gavage, feces collected until 48 hr after dosing; same animals as Example 6
# Procedure: The animals were kept in metabolic cages and feces were collected from the time of dosing until 48 hr after dosing. Upon collection, feces was dried by lyophilization and ground to a visually homogenous powder. Duplicate samples of ground feces from each individual animal were weighed out and extracted using organic solvent. Extracted samples were then diluted into mobile phase and test compound levels were quantitatively determined by LC-MS/MS analysis as described in Example 6 except that the standard curve was prepared in a feces matrix.
# rat NaP2b (SLC34A2) = molecular target: T2, rat NaP2b (SLC34A2) (Rattus norvegicus, UniProt Q9JJ09); experiment: Inhibition of NaP2b-mediated Pi uptake into transfected HEK293 cells (rat); type: cell-based; conditions: 33P Pi uptake, 100 uM KH2PO4, read-out: pIC50 range for rat Nap2b (converted)
# T2 construct: host or cells: HEK293
# T2 sequence (Q9JJ09 1-695): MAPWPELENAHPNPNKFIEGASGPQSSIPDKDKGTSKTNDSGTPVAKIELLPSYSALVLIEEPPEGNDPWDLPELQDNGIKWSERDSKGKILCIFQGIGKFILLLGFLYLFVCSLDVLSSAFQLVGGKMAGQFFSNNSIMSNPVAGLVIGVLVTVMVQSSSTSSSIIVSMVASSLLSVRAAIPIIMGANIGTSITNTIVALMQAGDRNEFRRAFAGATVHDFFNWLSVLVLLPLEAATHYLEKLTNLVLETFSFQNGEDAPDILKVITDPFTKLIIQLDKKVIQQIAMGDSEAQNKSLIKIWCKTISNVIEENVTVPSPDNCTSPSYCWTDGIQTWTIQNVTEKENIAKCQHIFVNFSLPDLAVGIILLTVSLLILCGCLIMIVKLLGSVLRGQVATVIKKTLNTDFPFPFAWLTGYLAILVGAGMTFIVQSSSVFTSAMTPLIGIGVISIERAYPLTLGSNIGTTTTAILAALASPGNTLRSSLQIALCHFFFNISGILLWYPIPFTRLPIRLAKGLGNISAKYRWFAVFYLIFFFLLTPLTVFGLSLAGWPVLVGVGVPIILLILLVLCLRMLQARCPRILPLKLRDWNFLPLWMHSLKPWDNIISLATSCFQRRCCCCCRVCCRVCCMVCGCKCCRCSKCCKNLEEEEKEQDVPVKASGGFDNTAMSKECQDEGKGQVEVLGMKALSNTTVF
# Procedure: as §1, §2
# Cells were seeded into 96-well plates at 25,000 cells/well and cultured overnight. Lipofectamine 2000 (Invitrogen) was used to introduce the NaP2b cDNA, and the cells were allowed to approach confluence during a second overnight incubation. […] Cells were then overlayed with either choline uptake buffer or sodium uptake buffer (14 mM Tris, 137 mM sodium chloride, 5.4 mM KCl, 2.8 mM CaCl2, 1.2 mM MgSO4, 100 uM KH2PO4, PiT-silencing agent, 1 mg/mL Bovine Serum Albumin, pH 7.4) containing 6-9 uCi/mL ^33P orthophosphoric acid (Perkin Elmer) and test compound. Each compound was tested at twelve concentrations ranging from 0.1 nM to 30 uM. Assays were run in duplicate.
# as §3, §4
# [3] = test system: uptake of phosphorus from the intestine; experiment: In vivo evaluation, co-dosing in chow: inhibition of uptake of phosphorus from the intestine; set-up: species or system Sprague-Dawley rats; conditions: rat, compound in chow, mean drug dose 115 mg/kg/day, versus control group
# Source text: Male, 7-week-old Sprague-Dawley rats (Charles-River laboratories international, Hollister, Calif.) were allowed to acclimate for a minimum of 3 days. The experiment was initiated by switching animals to a synthetic diet (0.6% phosphorus and 0.6% calcium, Harlan Teklad TD.84122) for four days. After this time, the animals were placed into metabolic cages for daily monitoring of food and water consumption, as well as urine and fecal collections. Test compounds were incorporated into the powdered diet listed above containing 3% chocolate flavoring (w/w, BioServ #7345) at 1.3 mg test compound per gram of diet to achieve an average daily nominal dose of 100 mg/kg/day. The actual dose received by each animal was later determined by measuring prepared diet consumption and body weight. Urine samples were collected in three daily periods from 24-48, 48-72, and 72-96 hours of drug dosing. […] Phosphorus levels in the urine were determined by anion exchange chromatography using a Dionex ICS-3000 ion chromatography system. […] Elution of urine phosphate ions was monitored via conductivity detector and reported as ppm relative to a standard ion solution containing phosphate. Daily urinary P output relative to the P consumed in the prepared diet for each animal was calculated. […] The differences between the means of control and treated groups were evaluated by t tests.
# NaPi2b = experiment: Competition with phosphate: Pi uptake assay repeated at 2.1 vs 0.1 mM phosphate; type: cell-based; conditions: potency at 2.1 vs 0.1 mM phosphate
# Procedure: To ascertain if an inhibitor was competitive for binding with phosphate, the procedure was repeated, but raising the concentration of the substrate in the assay mixture from 0.1 to 2.1 mM phosphate.
compound,measurement,setting,value
"O=C(O)CCSCc1cccc(C(=O)Nc2ccc(N3CCCCC3)cc2C(=O)c2cc3ccc(C(F)(F)F)cc3[nH]2)c1 [Example 1, 3-(3-((4-(Piperidin-1-yl)-2-(6-(trifluoromethyl)-1H-indole-2-carbonyl)phenyl)carbamoyl)benzylthio)propanoic acid]",IC50,human NaP2b (SLC34A2),1 to 7.94 µM
same,Cmax,"[1]; actual oral dose 7.5 mg/kg, LLOQ 10 ng/mL",0.299 µg/mL
same,AUC,[1]; actual oral dose 7.5 mg/kg,0.433 µg·h/mL
same,% recovered in feces,[2],34%
same,IC50,rat NaP2b (SLC34A2),1 to 7.94 µM
"CN(CCN1CCOCC1)C(=O)c1cccc(C(=O)Nc2ccc(N3CCCCC3)cc2C(=O)c2cc3ccc(C(F)(F)F)cc3[nH]2)c1 [Example 2, N1-Methyl-N1-(2-morpholinoethyl)-N3-(4-(piperidin-1-yl)-2-(6-(trifluoromethyl)-1H-indole-2-carbonyl)phenyl)isophthalamide 2,2,2-trifluoroacetate]",IC50,human NaP2b (SLC34A2),< 1 µM
same,Mean % inhibition Urine Pout/P consumed,[3],20%
same,Cmax,"[1]; actual oral dose 11 mg/kg, LLOQ 0.5 ng/mL",0.091 µg/mL
same,AUC,[1]; actual oral dose 11 mg/kg,< 0.097 µg·h/mL
same,Competitive with respect to Pi?,NaPi2b,No
same,% recovered in feces,[2],2.9%
same,IC50,rat NaP2b (SLC34A2),< 1 µM
"COCCNC(=O)c1cccc(SCc2cccc(C(=O)Nc3ccc(N4CCCCC4)cc3C(=O)c3cc4ccc(C(F)(F)F)cc4[nH]3)c2)c1 [Example 3, N-(2-Methoxyethyl)-3-(3-(4-(piperidin-1-yl)-2-(6-(trifluoromethyl)-1H-indole-2-carbonyl)phenylcarbamoyl)benzylthio)benzamide]",IC50,rat NaP2b (SLC34A2),2 to 25.1 µM
